Experimental data reported in the supplement of paper PMC10307832.

How the values were obtained:
Test in all cases: relative viability (nuclei count vs DMSO), 5 days (fraction); higher = more cells survive
[1] = compound: CN1C=C(C2=CC=CC=C21)/C=C\3/C4=C(C=CC=N4)NC3=O + C[C@]1(O)C[C@@H](c2nc(-c3ccc4ccc(-c5ccccc5)nc4c3)c3c(N)nccn32)C1 [Linsitinib] (partner 1 µM)
In short: (§1)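 Lung cancer cell lines were seeded in 1536-well plates and dosed by pin tool the next day, with either a single drug or a fixed anchor-drug dose combined with five library-drug doses (not always all listed) spaced in √10 steps. Five days later, one step fixed the cells and stained their nuclei (final 0.05% Triton X-100, 1% formaldehyde, 1 ug/ml Hoechst), and nuclei were counted on 4× images. Relative viability is the nuclei count in treated wells divided by the count in vehicle wells, and each value is the median of duplicate plates.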

[2] = compound: CC(=O)Nc1cccc(-n2c(=O)n(C3CC3)c(=O)c3c(Nc4ccc(I)cc4F)n(C)c(=O)c(C)c32)c1 [Trametinib] + COc1cccc2cc(-c3nc([C@H]4CC[C@H](C(=O)O)CC4)n4ncnc(N)c34)[nH]c12 [OSI-027] (partner 0.5 µM)
In short: as §1

[3] = compound: CC(=O)Nc1cccc(-n2c(=O)n(C3CC3)c(=O)c3c(Nc4ccc(I)cc4F)n(C)c(=O)c(C)c32)c1 [Trametinib] + CCNC(=O)c1noc(-c2cc(C(C)C)c(O)cc2O)c1-c1ccc(CN2CCOCC2)cc1 [Luminespib] (partner 0.01 µM)
In short: as §1

[4] = compound: CN1C=C(C2=CC=CC=C21)/C=C\3/C4=C(C=CC=N4)NC3=O + Nc1ncn([C@H]2C[C@H](O)[C@@H](CO)O2)c(=O)n1 [Decitabine] (partner 2 µM)
In short: as §1

NCI-H1355 gave a relative viability ([1]; first compound 0.02 µM) of 0.702, a relative viability ([1]; first compound 0.06325 µM) of 0.748 and a relative viability ([1]; first compound 0.2 µM) of 0.73. The relative viability ([1]; first compound 0.6325 µM) was 0.56, the relative viability ([1]; first compound 2 µM) was 0.632 and the relative viability ([2]; first compound 0.0025 µM) was 0.344. It also gave a relative viability ([2]; first compound 0.007906 µM) of 0.327, a relative viability ([2]; first compound 0.025 µM) of 0.241 and a relative viability ([2]; first compound 0.07906 µM) of 0.263. It also gave a relative viability ([2]; first compound 0.25 µM) of 0.242, a relative viability ([3]; first compound 0.0025 µM) of 0.486 and a relative viability ([3]; first compound 0.007906 µM) of 0.605. It also gave a relative viability ([3]; first compound 0.025 µM) of 0.323, a relative viability ([3]; first compound 0.07906 µM) of 0.35 and a relative viability ([3]; first compound 0.25 µM) of 0.3. The relative viability ([4]; first compound 0.02 µM) was 0.342, the relative viability ([4]; first compound 0.06325 µM) was 0.375 and the relative viability ([4]; first compound 0.2 µM) was 0.374. For the same cell line, the relative viability ([4]; first compound 0.6325 µM) was 0.317 and the relative viability ([4]; first compound 2 µM) was 0.324.

LC-2-ad was tested, and the relative viability ([1]; first compound 0.02 µM) was 0.743, the relative viability ([1]; first compound 0.06325 µM) was 0.83 and the relative viability ([1]; first compound 0.2 µM) was 0.766. For the same cell line, the relative viability ([1]; first compound 0.6325 µM) was 0.864, the relative viability ([1]; first compound 2 µM) was 0.765 and the relative viability ([2]; first compound 0.0025 µM) was 0.853. For the same cell line, the relative viability ([2]; first compound 0.007906 µM) was 0.57, the relative viability ([2]; first compound 0.025 µM) was 0.513 and the relative viability ([2]; first compound 0.07906 µM) was 0.516. For the same cell line, the relative viability ([2]; first compound 0.25 µM) was 0.416, the relative viability ([3]; first compound 0.0025 µM) was 0.975 and the relative viability ([3]; first compound 0.007906 µM) was 0.951. The relative viability ([3]; first compound 0.025 µM) was 1, the relative viability ([3]; first compound 0.07906 µM) was 0.71 and the relative viability ([3]; first compound 0.25 µM) was 0.447. It also gave a relative viability ([4]; first compound 0.02 µM) of 0.772, a relative viability ([4]; first compound 0.06325 µM) of 0.826 and a relative viability ([4]; first compound 0.2 µM) of 0.783. For the same cell line, the relative viability ([4]; first compound 0.6325 µM) was 0.861 and the relative viability ([4]; first compound 2 µM) was 0.817.

Cell Line NCI-H1944 has a relative viability ([1]; first compound 0.02 µM) of 1.19, a relative viability ([1]; first compound 0.06325 µM) of 1.18 and a relative viability ([1]; first compound 0.6325 µM) of 1.32. For the same cell line, the relative viability ([1]; first compound 2 µM) was 1.23, the relative viability ([2]; first compound 0.0025 µM) was 0.359 and the relative viability ([2]; first compound 0.007906 µM) was 0.309. The relative viability ([2]; first compound 0.025 µM) was 0.318, the relative viability ([2]; first compound 0.07906 µM) was 0.279 and the relative viability ([2]; first compound 0.25 µM) was 0.23. It also gave a relative viability ([3]; first compound 0.0025 µM) of 0.624, a relative viability ([3]; first compound 0.007906 µM) of 0.489 and a relative viability ([3]; first compound 0.025 µM) of 0.429. The relative viability ([3]; first compound 0.07906 µM) was 0.377, the relative viability ([3]; first compound 0.25 µM) was 0.22 and the relative viability ([4]; first compound 0.02 µM) was 0.423. The relative viability ([4]; first compound 0.06325 µM) was 0.419, the relative viability ([4]; first compound 0.6325 µM) was 0.415 and the relative viability ([4]; first compound 2 µM) was 0.416.

HCC-827 gave a relative viability ([1]; first compound 0.02 µM) of 0.929, a relative viability ([1]; first compound 0.06325 µM) of 0.923 and a relative viability ([1]; first compound 0.6325 µM) of 0.944. It also gave a relative viability ([1]; first compound 2 µM) of 0.926, a relative viability ([2]; first compound 0.0025 µM) of 0.702 and a relative viability ([2]; first compound 0.007906 µM) of 0.671. It also gave a relative viability ([2]; first compound 0.025 µM) of 0.529, a relative viability ([2]; first compound 0.07906 µM) of 0.392 and a relative viability ([2]; first compound 0.25 µM) of 0.429. The relative viability ([3]; first compound 0.0025 µM) was 0.63, the relative viability ([3]; first compound 0.007906 µM) was 0.24 and the relative viability ([3]; first compound 0.025 µM) was 0.219. For the same cell line, the relative viability ([3]; first compound 0.07906 µM) was 0.228, the relative viability ([3]; first compound 0.25 µM) was 0.153 and the relative viability ([4]; first compound 0.02 µM) was 0.315. The relative viability ([4]; first compound 0.06325 µM) was 0.297, the relative viability ([4]; first compound 0.6325 µM) was 0.327 and the relative viability ([4]; first compound 2 µM) was 0.297.

In the case of COR-L23, the relative viability ([1]; first compound 0.02 µM) is reported as 0.924, the relative viability ([1]; first compound 0.06325 µM) is reported as 0.967 and the relative viability ([1]; first compound 0.2 µM) is reported as 0.865. The relative viability ([1]; first compound 0.6325 µM) was 1.03, the relative viability ([1]; first compound 2 µM) was 0.865 and the relative viability ([2]; first compound 0.0025 µM) was 0.686. The relative viability ([2]; first compound 0.007906 µM) was 0.7, the relative viability ([2]; first compound 0.025 µM) was 0.364 and the relative viability ([2]; first compound 0.07906 µM) was 0.455. For the same cell line, the relative viability ([2]; first compound 0.25 µM) was 0.249, the relative viability ([3]; first compound 0.0025 µM) was 0.638 and the relative viability ([3]; first compound 0.007906 µM) was 0.462. For the same cell line, the relative viability ([3]; first compound 0.025 µM) was 0.306, the relative viability ([3]; first compound 0.07906 µM) was 0.248 and the relative viability ([3]; first compound 0.25 µM) was 0.236. The relative viability ([4]; first compound 0.02 µM) was 0.446, the relative viability ([4]; first compound 0.06325 µM) was 0.372 and the relative viability ([4]; first compound 0.2 µM) was 0.403. It also gave a relative viability ([4]; first compound 0.6325 µM) of 0.408 and a relative viability ([4]; first compound 2 µM) of 0.435.

NCI-H3122 gave a relative viability ([1]; first compound 0.02 µM) of 0.895, a relative viability ([1]; first compound 0.06325 µM) of 0.972 and a relative viability ([1]; first compound 0.2 µM) of 1.01. The relative viability ([1]; first compound 0.6325 µM) was 1.06, the relative viability ([1]; first compound 2 µM) was 1.04 and the relative viability ([2]; first compound 0.0025 µM) was 0.555. It also gave a relative viability ([2]; first compound 0.007906 µM) of 0.352, a relative viability ([2]; first compound 0.025 µM) of 0.211 and a relative viability ([2]; first compound 0.07906 µM) of 0.169. For the same cell line, the relative viability ([2]; first compound 0.25 µM) was 0.159, the relative viability ([3]; first compound 0.0025 µM) was 0.103 and the relative viability ([3]; first compound 0.007906 µM) was 0.0926. It also gave a relative viability ([3]; first compound 0.025 µM) of 0.0926, a relative viability ([3]; first compound 0.07906 µM) of 0.0939 and a relative viability ([3]; first compound 0.25 µM) of 0.0775. For the same cell line, the relative viability ([4]; first compound 0.02 µM) was 0.407, the relative viability ([4]; first compound 0.06325 µM) was 0.445 and the relative viability ([4]; first compound 0.2 µM) was 0.38. For the same cell line, the relative viability ([4]; first compound 0.6325 µM) was 0.496 and the relative viability ([4]; first compound 2 µM) was 0.507.

In the case of NCI-H1793, the relative viability ([1]; first compound 0.02 µM) is reported as 1, the relative viability ([1]; first compound 0.06325 µM) is reported as 1.06 and the relative viability ([1]; first compound 0.2 µM) is reported as 0.748. The relative viability ([1]; first compound 0.6325 µM) was 0.95, the relative viability ([1]; first compound 2 µM) was 0.884 and the relative viability ([2]; first compound 0.0025 µM) was 0.245. The relative viability ([2]; first compound 0.007906 µM) was 0.236, the relative viability ([2]; first compound 0.025 µM) was 0.204 and the relative viability ([2]; first compound 0.07906 µM) was 0.199. It also gave a relative viability ([2]; first compound 0.25 µM) of 0.199, a relative viability ([3]; first compound 0.0025 µM) of 0.304 and a relative viability ([3]; first compound 0.007906 µM) of 0.159. It also gave a relative viability ([3]; first compound 0.025 µM) of 0.142, a relative viability ([3]; first compound 0.07906 µM) of 0.173 and a relative viability ([3]; first compound 0.25 µM) of 0.17. For the same cell line, the relative viability ([4]; first compound 0.02 µM) was 0.34, the relative viability ([4]; first compound 0.06325 µM) was 0.521 and the relative viability ([4]; first compound 0.2 µM) was 0.493. It also gave a relative viability ([4]; first compound 0.6325 µM) of 0.59 and a relative viability ([4]; first compound 2 µM) of 0.499.

For BEN, the relative viability ([1]; first compound 0.02 µM) was 0.847, the relative viability ([1]; first compound 0.06325 µM) was 0.996 and the relative viability ([1]; first compound 0.2 µM) was 0.823. For the same cell line, the relative viability ([1]; first compound 0.6325 µM) was 0.875, the relative viability ([1]; first compound 2 µM) was 1.03 and the relative viability ([2]; first compound 0.0025 µM) was 0.317. For the same cell line, the relative viability ([2]; first compound 0.007906 µM) was 0.274, the relative viability ([2]; first compound 0.025 µM) was 0.27 and the relative viability ([2]; first compound 0.07906 µM) was 0.294. The relative viability ([2]; first compound 0.25 µM) was 0.325, the relative viability ([3]; first compound 0.0025 µM) was 0.269 and the relative viability ([3]; first compound 0.007906 µM) was 0.374. It also gave a relative viability ([3]; first compound 0.025 µM) of 0.154, a relative viability ([3]; first compound 0.07906 µM) of 0.379 and a relative viability ([3]; first compound 0.25 µM) of 0.377. It also gave a relative viability ([4]; first compound 0.02 µM) of 0.691, a relative viability ([4]; first compound 0.06325 µM) of 0.634 and a relative viability ([4]; first compound 0.2 µM) of 0.513. It also gave a relative viability ([4]; first compound 0.6325 µM) of 0.623 and a relative viability ([4]; first compound 2 µM) of 0.781.
